{"source": "patent US20140315972A1", "about": "“RS)-2-(2-oxo-4-phenylpyrrolidin-1-yl)acetamide compound having modulatory activity with a commensurate effect, pharmaceutical substance (variants) and its application, composition (variants) thereof” (priority 2011, published 2014)", "key": {"[1]": {"system": "mice", "test": "Duration of swimming in cold (2° C.) and normal (25° C.) water", "type": "in vivo", "settings": "for Duration of swimming at day 28: 4-week administration 50 mg/kg", "procedure": "Stimulatory effect on the duration of swimming in cold (2° C.) and normal (25° C.) water (Table 8.1-8.1.1) of Phenotropil (25 and 50 mg/kg) compared with the control (distilled water) and Benzedrine (2.5 mg/kg) was studied in white outbred male mice (18-26 g) compared to control (distilled water) when intraperitoneally administered, 60 min after the administration and with a course administration for 4 weeks administration on day 28 (Table 8.1.2). […] At normal temperature of water, the effect of Benzedrine was not modified and stayed at 34%.\nThe advantage of psychomodulator Phenotropil is obvious both with the single dose and the course use, by the effect on physical performance and stability of the body, both in normal and more adverse temperature conditions."}, "[2]": {"system": "mice", "test": "Hot plate test (pain sensitivity)", "type": "in vivo", "settings": "for Latent period (hot plate): mice", "excerpt": "The analgesic effect is present at all studied doses and increases with increasing dose."}, "[3]": {"system": "rats", "test": "Formalin induced edema, topical application", "type": "in vivo", "procedure": "To identify and assess the anti-inflammatory action of Phenotropil, a standard technique was used; the carrageenan-induced paw edema in rats (Winter C. et al, 1962). Phenotropil at a dose of 100 mg/kg was administered intragastrically 60 minutes before carrageenan. Control animals received distilled water. Additionally, the topical application by method of formalin induced edema was investigated (subplantar administration of 0.1 ml of 2% formalin solution). Phenotropil for topical use was prepared (1:1) on the standard ointment base carrier at 100 mg/kg of body weight for each animal (150-220 g). The preparation was rubbed in the leg and a gauze patch was applied for 2 hours and 1 hour before the induction of inflammation."}, "[4]": {"system": "rats", "test": "Anti-ulcerogenic action under Ds-conditions", "type": "in vivo", "settings": "listed as Phenotropil"}, "[5]": {"system": "influenza", "test": "Respiratory viral infection (influenza) of mice during life duration study", "type": "in vivo", "settings": "influenza outbreak"}, "[6]": {"system": "patients", "test": "Topical solution on periodontal, enamel and dentin condition", "type": "in vivo, human", "settings": "for Efficacy on a 4-point scale (periodontal, enamel and dentin condition): humans, topical", "excerpt": "Studies of the effects of Phenotropil on condition of paradontium, enamel and dentin with topic application involved men and women (45-54 years) diagnosed with periodontitis, parodontosis and caries. Enrollment of groups by separate indicators in this age failed. In the vast majority of subjects, the diseases were combined. The gender ratio in groups was: 30.0% men and 70.0% women, the ratio of smokers to non-smokers 60:40, the number of female smokers was higher than male smokers by 35.0%. All patients received every three days the required amount of 0.1%, 0.2% or 0.3% solution of Phenotropil or placebo. The solutions were applied daily as dental trays (for 30 sec.) in the morning and evening at 30 ml per application for 30 days. Food and drinks intake, including water, were not recommended for 2 hours after the procedure. All patients underwent a dental check-up and standard hygienic treatment with removing plaque and dental scale and lavaging the gingival pockets with 1% Phenotropil solution. For each subject, the studied parameters were recorded; the aggregate integral indicator of the general periodontal condition of enamel and dentin was calculated, in the negative scores. The examinations were conducted once a week throughout the period of monotherapy. Simultaneous studies were conducted for evaluation of lipid peroxidation state in samples of saliva, at the baseline examination and after the course of therapy.\nThe positive effect of treatment with Phenotropil was observed after about 14 days and intensified in the course of therapy. Efficacy after one month of treatment with the drug was the highest and most evident at the initial stages of disease and moderate severity of […]. Effect on periodontitis was apparent, but less pronounced. Treatment of periodontitis probably requires a longer course and administration of Phenotropil tablets according to the usual regime to modulate the general functional state of the body. The ranking evaluation of efficacy (0—no effect, 1—slightly pronounced effect below 30.0% in the group, 2—average degree of efficacy from 30.0 to 50.0%, 3—high efficacy, above 50.0%) was established by an integral indicator of the aggregate of all the parameters tested."}, "[7]": {"system": "patients", "test": "Seborrhea of scalp and face skin, topical solution", "type": "in vivo, human", "settings": "for Efficacy expressed in points on a 4-point scale (seborrhea): humans", "procedure": "A study of effect of Phenotropil on the scalp and face skin in seborrhea oleosa and on the scalp skin in dry seborrhea, as well in the mixed form, was performed on mixed groups of both sexes (15-37 years). The 0.1% Phenotropil solution was used. In the group with mixed form, additional Phenotropil tablets were administered at a dose of 100 mg per day (in the morning). The baseline examinations were used as control. The prepared samples were rubbed into the scalp once a day 1 or 2 hours before bedtime. In the case of acneiform rash, the skin was wiped in the morning and evening by cotton pads soaked (as usual lotion) by 0.1% aqueous Phenotropil. Washing the hair using shampoo was not recommended. A neutral baby soap “Alice” by OAO Svoboda and the rinse prepared with 25 ml of lemon juice and 100 mg Phenotropil powder per 1000.0 ml water were used. Studies were conducted for 28 calendar days with monitoring examinations every 14 days. In the dry seborrhea group, three patients withdrew from the study after two weeks due to reluctance to undergo further examination; they found it difficult to comply with the regime of the detergents use. The skin state was assessed by a 4-point system, where 0—absent, 1—the effect intensity less than 50.0%, 2—the effect intensity more than 50.0%, 3—the effect intensity more than 80% but less than 100.0% of the cases."}}, "note": "Values joined by “and” are separate entries in the source; they are usually repeats but may differ in a detail not shown here. Equal entries are not always repeated. Marks after values point to notes of the source that are not given here.", "data": [{"compound": "NC(=O)CN1CC(c2ccccc2)CC1=O", "note": "(racemic) [Compound 1, (RS)-2-(2-oxo-4-phenylpyrrolidine-1-yl)acetamide]", "values": [{"measurement": "Duration of swimming", "setting": "[1]; single dose 25 mg/kg i.p.", "result": "161.90 ± 15.00", "unit": "min"}, {"measurement": "Duration of swimming", "setting": "[1]; single dose 50 mg/kg i.p.", "result": "209.83 ± 14.85", "unit": "min"}, {"measurement": "Duration of swimming at day 28", "setting": "[1]; water 2° C.", "result": "2.34 ± 0.15", "unit": "min"}, {"measurement": "Duration of swimming", "setting": "[1]; water 2° C., single dose 25 mg/kg i.p.", "result": "2.10 ± 0.17", "unit": "min"}, {"measurement": "Duration of swimming", "setting": "[1]; water 2° C., single dose 50 mg/kg i.p.", "result": "2.30 ± 0.22", "unit": "min"}, {"measurement": "Duration of swimming at day 28", "setting": "[1]; water 25° C.", "result": "222.03 ± 10.95", "unit": "min"}, {"measurement": "Duration of swimming vs control", "setting": "[1]; water 25° C., single dose 25 mg/kg i.p.", "result": "+35%"}, {"measurement": "reduction of pain sensitivity", "setting": "[2]; 50 mg/kg, 30 minutes", "result": 14.3, "unit": "%"}, {"measurement": "reduction of pain sensitivity", "setting": "[2]; 50 mg/kg, 60 minutes", "result": 8.3, "unit": "%"}, {"measurement": "reduction of pain sensitivity", "setting": "[2]; 50 mg/kg, 120 minutes", "result": 10.8, "unit": "%"}, {"measurement": "reduction of pain sensitivity", "setting": "[2]; 100.0 mg/kg, 30 minutes", "result": 12.4, "unit": "%"}, {"measurement": "reduction of pain sensitivity", "setting": "[2]; 100.0 mg/kg, 60 minutes", "result": 12.5, "unit": "%"}, {"measurement": "reduction of pain sensitivity", "setting": "[2]; 100.0 mg/kg, 120 minutes", "result": 31.5, "unit": "%"}, {"measurement": "reduction of pain sensitivity", "setting": "[2]; 300.0 mg/kg, 30 minutes", "result": 71.4, "unit": "%"}, {"measurement": "reduction of pain sensitivity", "setting": "[2]; 300.0 mg/kg, 60 minutes", "result": 61.5, "unit": "%"}, {"measurement": "Latent period (hot plate)", "setting": "[2]; 50.0 mg/kg i.p., 30 min", "result": "12.0 ± 1.1", "unit": "min"}, {"measurement": "Latent period (hot plate)", "setting": "[2]; 50.0 mg/kg i.p., 60 min", "result": "11.7 ± 0.7", "unit": "min"}, {"measurement": "Latent period (hot plate)", "setting": "[2]; 50.0 mg/kg i.p., 120 min", "result": "12.3 ± 0.8", "unit": "min"}, {"measurement": "Latent period (hot plate)", "setting": "[2]; 100.0 mg/kg i.p., 30 min", "result": "11.8 ± 0.7^ min."}, {"measurement": "Latent period (hot plate)", "setting": "[2]; 100.0 mg/kg i.p., 60 min", "result": "13.5 ± 1.4", "unit": "min"}, {"measurement": "Latent period (hot plate)", "setting": "[2]; 100.0 mg/kg i.p., 120 min", "result": "14.6 ± 1.4", "unit": "min"}, {"measurement": "Latent period (hot plate)", "setting": "[2]; 300.0 mg/kg i.p., 30 min", "result": "18.0 ± 1.0", "unit": "min"}, {"measurement": "Latent period (hot plate)", "setting": "[2]; 300.0 mg/kg i.p., 60 min", "result": "18.2 ± 0.8", "unit": "min"}, {"measurement": "Latent period (hot plate)", "setting": "[2]; 300.0 mg/kg i.p., 120 min", "result": "22.2 ± 1.0", "unit": "min"}, {"measurement": "shortening of inflammation vs control", "setting": "[3]; topical 100 mg/kg before formalin", "result": 64.5, "unit": "%"}, {"measurement": "Effect on formalin edema vs control (100)", "setting": "[3]; topical 100 mg/kg, 2 hours before formalin", "result": "−79.9", "unit": "%"}, {"measurement": "ulcer number vs control (100)", "setting": "[4]; 25 mg/kg + 5.0% glucose solution, 25 mg/kg", "result": "−45% and −42 * %"}, {"measurement": "ulcer number vs control (100)", "setting": "[4]; 50 mg/kg + 5.0% glucose solution, 50 mg/kg", "result": "−63% and −63 * %"}, {"measurement": "ulcer number vs control (100)", "setting": "[4]; 100 mg/kg + 5.0% glucose solution, 100 mg/kg", "result": "−80% and −80 * %"}, {"measurement": "surviving mice that did not get sick", "setting": "[5]", "result": 46, "unit": "%"}, {"measurement": "surviving mice that had been ill but survived", "setting": "[5]", "result": 54, "unit": "%"}, {"measurement": "mice died, total in treated groups", "setting": "[5]; all control animals died", "result": 15, "unit": "%"}, {"measurement": "smokers who quit smoking at the third week of therapy", "setting": "[6]; 0.1-0.3% solution as dental trays, 30 days", "result": 25.0, "unit": "%"}, {"measurement": "Efficacy on a 4-point scale (periodontal, enamel and dentin condition)", "setting": "[6]; Phenotropil 1%", "result": "2* (average degree of efficacy from 30.0 to 50.0%)"}, {"measurement": "Efficacy on a 4-point scale (periodontal, enamel and dentin condition)", "setting": "[6]; Phenotropil 2%", "result": "3* (high efficacy, above 50.0%)"}, {"measurement": "Efficacy on a 4-point scale (periodontal, enamel and dentin condition)", "setting": "[6]; Phenotropil 3%", "result": "3* (high efficacy, above 50.0%)"}, {"measurement": "therapeutic effect compared to control with simultaneous tablets", "setting": "[7]; 0.1% solution + tablets 100 mg per day", "result": 300.0, "unit": "%"}, {"measurement": "therapeutic effect in seborrhoea compared with control", "setting": "[7]; 0.1% solution, 28 days", "result": 200.0, "unit": "%"}, {"measurement": "Efficacy expressed in points on a 4-point scale (seborrhea)", "setting": "[7]; DF (dry form), topically 0.1% aqueous solution", "result": "2* (the effect intensity more than 50.0%)"}, {"measurement": "Efficacy expressed in points on a 4-point scale (seborrhea)", "setting": "[7]; MF (mixed form), oral 100 mg", "result": "1* (the effect intensity less than 50.0%)"}, {"measurement": "Efficacy expressed in points on a 4-point scale (seborrhea)", "setting": "[7]; MF (mixed form), topically 0.1% aqueous solution + 100 mg orally", "result": "3* (the effect intensity more than 80% but less than 100.0% of the cases)"}, {"measurement": "Efficacy expressed in points on a 4-point scale (seborrhea)", "setting": "[7]; OF (oily form), topically 0.1% aqueous solution", "result": "2* (the effect intensity more than 50.0%)"}]}]}
